Assay [1] has as its target T1, dopamine (DA) reuptake in synaptosomes (Rattus norvegicus, UniProt P23977).
T1 construct: in synaptosomes as described in WO 97/16451; from tissue
In words: Inhibition of DA reuptake in synaptosomes. Format: biochemical. As to conditions: 3H-DA, read-out: DA-uptake IC50. The method, then:
(§1) A compound of the invention was tested for its ability to inhibit the reuptake of the monoamine neurotransmitters dopamine (DA) noradrenaline (NA) and serotonine (5-HT) in synaptosomes as described in WO 97/16451.
(§2) The test values are given as IC50 (the concentration (μM) of the test substance which inhibits the specific binding of ^3H-DA, ^3H-NA, or ^3H-5-HT by 50%).

Assay [2] addresses T2, serotonine (5-HT) reuptake in synaptosomes (Rattus norvegicus, UniProt P31652).
T2 construct: serotonine (5-HT) in synaptosomes as described in WO 97/16451; from tissue
In words: Inhibition of 5-HT reuptake in synaptosomes. Format: biochemical. As to conditions: 3H-5-HT, read-out: 5-HT-uptake IC50. The protocol: as §1, §2

For assay [3], the target named is T3, α7-subtype of nicotinic receptors (Rattus norvegicus, UniProt Q05941).
T3 construct: Cerebral cortices from male Wistar rats (150-250 g) are homogenised; from tissue; host or cells: cerebral cortex of male Wistar rats, washed membrane pellet
T3 sequence (Q05941 23-502): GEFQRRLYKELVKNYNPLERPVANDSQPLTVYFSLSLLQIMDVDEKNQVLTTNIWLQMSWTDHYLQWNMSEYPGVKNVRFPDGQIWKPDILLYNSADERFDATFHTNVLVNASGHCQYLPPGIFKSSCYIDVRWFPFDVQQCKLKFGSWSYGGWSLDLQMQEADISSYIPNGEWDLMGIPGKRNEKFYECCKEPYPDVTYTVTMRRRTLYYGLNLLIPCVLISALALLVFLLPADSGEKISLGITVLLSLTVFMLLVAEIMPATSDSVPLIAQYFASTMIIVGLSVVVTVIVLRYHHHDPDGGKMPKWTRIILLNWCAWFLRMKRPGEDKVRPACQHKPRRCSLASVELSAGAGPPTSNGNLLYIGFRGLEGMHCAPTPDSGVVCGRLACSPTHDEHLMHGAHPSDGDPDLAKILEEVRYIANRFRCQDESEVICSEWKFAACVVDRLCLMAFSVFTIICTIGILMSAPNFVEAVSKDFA
In words: biochemical. Format: binding.

T1 sequence (P23977 whole entry): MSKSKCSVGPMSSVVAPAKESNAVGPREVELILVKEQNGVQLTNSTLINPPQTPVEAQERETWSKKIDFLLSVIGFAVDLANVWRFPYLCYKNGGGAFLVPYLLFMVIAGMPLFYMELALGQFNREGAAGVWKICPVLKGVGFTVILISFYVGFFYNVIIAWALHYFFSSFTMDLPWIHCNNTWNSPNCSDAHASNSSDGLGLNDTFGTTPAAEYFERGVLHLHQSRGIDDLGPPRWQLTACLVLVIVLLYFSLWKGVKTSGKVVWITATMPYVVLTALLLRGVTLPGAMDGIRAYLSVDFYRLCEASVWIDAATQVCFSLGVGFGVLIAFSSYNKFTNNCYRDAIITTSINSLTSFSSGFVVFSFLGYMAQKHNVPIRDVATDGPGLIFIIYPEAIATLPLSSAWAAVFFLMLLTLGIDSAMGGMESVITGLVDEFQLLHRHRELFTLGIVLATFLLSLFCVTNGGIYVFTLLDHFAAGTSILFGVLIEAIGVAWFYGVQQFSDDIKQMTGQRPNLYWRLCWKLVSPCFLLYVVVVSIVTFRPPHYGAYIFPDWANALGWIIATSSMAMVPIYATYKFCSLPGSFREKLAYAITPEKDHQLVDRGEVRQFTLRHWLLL
T2 sequence (P31652 whole entry): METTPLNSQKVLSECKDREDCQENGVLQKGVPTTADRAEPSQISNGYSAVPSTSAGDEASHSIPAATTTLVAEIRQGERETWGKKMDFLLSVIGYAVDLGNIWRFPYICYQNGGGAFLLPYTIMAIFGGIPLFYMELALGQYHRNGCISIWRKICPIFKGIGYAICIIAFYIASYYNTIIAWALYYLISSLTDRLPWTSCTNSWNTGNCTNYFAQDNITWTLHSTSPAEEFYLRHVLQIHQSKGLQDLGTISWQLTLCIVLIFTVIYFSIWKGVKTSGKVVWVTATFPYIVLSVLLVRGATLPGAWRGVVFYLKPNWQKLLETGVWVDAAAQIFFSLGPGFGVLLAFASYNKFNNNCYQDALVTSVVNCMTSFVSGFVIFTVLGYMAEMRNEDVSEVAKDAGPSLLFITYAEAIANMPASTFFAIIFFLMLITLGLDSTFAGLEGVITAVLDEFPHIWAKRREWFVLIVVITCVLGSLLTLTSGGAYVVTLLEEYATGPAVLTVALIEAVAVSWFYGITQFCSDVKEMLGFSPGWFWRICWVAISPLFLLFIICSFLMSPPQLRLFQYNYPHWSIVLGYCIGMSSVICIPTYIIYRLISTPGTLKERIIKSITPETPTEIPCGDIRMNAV

As usually defined, the IC50 is the midpoint of a concentration-inhibition curve. As for `O=C(Oc1ccc(N=Nc2ccccc2)cc1)N1CCN2CCC1CC2` [1,4-Diaza-bicyclo[3.2.2]nonane-4-carboxylic acid 4-phenylazo-phenyl ester], the figures for the IC50 in assay [1], in assay [2] and in assay [3] were 32 nM, 13000 nM and 1600 nM, respectively.

These data come from patent publication US7994156B2 (priority 2007, dated 2011).
